Assay results: PubChem BioAssay AID1996
Converted amounts (≈) assume the structure as drawn.

Details: buffer; pH 7.4; 200.0 µM

SMILES	solubility kinetic [µg/mL]
CC1(C)CC(NC(=O)c2ccccc2F)CC(C)(C)N1	> 41.8
CCOC(=O)N1CCC2(CC1)C(C#N)=C(N)OC1=C2C(=O)CCC1	> 49.7
OCC1(CC2CCCCO2)CCN(Cc2cccc(O)c2)CC1 (stereo unspecified)	47.3 (≈ 148 µM)
CCCC(=O)Nc1c(C(=O)OCC)oc2ccccc12	> 41.3
CCc1ccc(OCC(=O)Nc2ccncc2)cc1	> 38.4
COc1ccc(N/C=C/C(=O)c2ccc(OC)c(OC)c2)cc1	< 0.7
CCOC(=O)N1c2ccccc2C=CC1OCC (stereo unspecified)	8 (≈ 32.4 µM)
Cc1ccccc1C(N)c1ccncc1.Cl (stereo unspecified)	> 40.7
Cc1ccc2nc(NCC(N)=O)nc(-c3ccccc3)c2c1	1.4 (≈ 4.79 µM)
Cc1ccc(NC(=O)C/C(N)=N/O)cc1Cl	> 36.3
Cc1ccc(S(=O)(=O)NC(=O)Nc2cc(C(C)(C)C)on2)cc1	> 50.6
O=C(NC1CCCC1)c1cc(COc2ccc3ncccc3c2)on1	21.2 (≈ 62.8 µM)
CN(Cc1ccccc1)C(=O)CN1CCCC1=O	> 36.9
O=C(O)CNC(=S)NCc1ccccc1	> 33.6
O=c1[nH]c2ccccc2nc1NCc1ccccc1	3.9 (≈ 15.5 µM)
Cc1oc(/N=C/c2cccc([N+](=O)[O-])c2)c(C#N)c1C	7.2 (≈ 26.7 µM)
O=C(Nc1ccc2c(c1)CCC2)c1cnc(Cl)c(Cl)c1	< 0.3
CC(=O)C1=C(C)NC2=C(C(=O)c3ccccc32)C1c1ccccc1 (stereo unspecified)	0.8 (≈ 2.54 µM)
Clc1cccc(Nc2nc(-c3ccncc3)nc3ccccc23)c1	< 0.2
Cc1ccc2[nH]c(C(=O)N3CCCCC3)cc2c1	7.6 (≈ 31.4 µM)
CN(C)c1nc(N)c([N+](=O)[O-])c(NCC2CCCO2)n1 (stereo unspecified)	40.5 (≈ 143 µM)
O=C(O)CCSc1nc2ccccc2n1Cc1ccccc1	43.7 (≈ 140 µM)
COc1cccc(NC(=O)C2=COCCO2)c1	> 35.3
Cc1ccccc1CN1CCN(CC(=O)NCc2ccccc2)CC1	> 50.6
CCCc1ccc(C(=O)O/N=C(\N)c2ccccn2)cc1	3.1 (≈ 10.9 µM)

SMILES	solubility kinetic [µg/mL]
O=C1CC(Sc2ccc(Cl)cc2)C(=O)N1c1ccc2c(c1)OCCO2 (stereo unspecified)	13 (≈ 34.6 µM)
O=c1ccn(CCc2c[nH]c3ccccc23)c2c1CCCC2	> 43.9
Cc1ccccc1OCC1Cn2c(nc3c2c(=O)n(C)c(=O)n3C)O1 (stereo unspecified)	> 51.4
CN(C(=O)/C=C/c1ccc(F)cc1)C1CCCCC1	> 39.2
O=C1C2C3C=CC(C3)C2C(=O)N1Nc1ccccc1 (stereo unspecified)	> 38.1
CC(=O)Nc1ccc(C(=S)NCCCO)cc1	> 37.8
CC(C)COc1ncnc2c1sc1nc3c(cc12)COC(C)(C)C3	3.7 (≈ 10.8 µM)
CC(C)Oc1cccc(NC(=O)c2cnccc2C(F)(F)F)c1	43.9 (≈ 135 µM)
CN(C(=O)CSc1nnc(-c2ccc(Cl)cc2)n1C)C1CCS(=O)(=O)C1 (stereo unspecified)	> 62.2
CCOC(=O)c1ccc(N2C(=O)C=C(N3CCOCC3)C2=O)cc1	> 49.6
O=C(/C=C/c1ccccc1)OCc1cncs1	32.2 (≈ 131 µM)
CCc1cc(C(=O)NC(C)C2CCCO2)cs1 (stereo unspecified)	> 38
COC(=O)c1ccc(Nc2cc(C)nc3ccc(C)cc23)cc1.Cl	8
COc1ccc(CCCC(=O)NCCc2ccccc2)c(C)c1	10.5 (≈ 33.7 µM)
Cc1ccc(NC(=O)NC(=O)COc2c(F)c(F)cc(F)c2F)c(C)c1	20.5 (≈ 55.4 µM)
COc1cc2ccccc2cc1C(=O)Nc1ccc(C)cc1	2.3 (≈ 7.89 µM)
O=Cc1ccc(-c2cccc([N+](=O)[O-])c2)o1	6.3 (≈ 29 µM)
O=C(CNC(=O)c1ccccc1F)OCC(=O)c1c[nH]c2ccccc12	43 (≈ 121 µM)
Cc1ccc(S(=O)(=O)NCC(=O)Nc2cccnc2)cc1C	> 47.9
COc1cccc(NC(=O)COC(=O)CC2CC3CCC2C3)c1 (stereo unspecified)	24.1 (≈ 75.9 µM)
O=S(=O)(Nc1ccccc1)c1ccc(NS(=O)(=O)c2cccs2)cc1	34.4 (≈ 87.2 µM)
Cc1ccc(S(=O)(=O)N2CCc3ccccc3C2CC(=O)O)cc1 (stereo unspecified)	> 51.8
COCC(C)NC(=O)c1cc2c(ccc3ccccc32)oc1=O (stereo unspecified)	18.1 (≈ 58.1 µM)
O=C(/C=C/c1ccccc1)Nc1cccnc1Oc1ccccc1F	2.7 (≈ 8.08 µM)
CCOc1ccccc1NC(=O)COC(=O)c1cc(C)oc1C	2.2 (≈ 6.93 µM)

SMILES	solubility kinetic [µg/mL]
CN(C(=O)COC(=O)c1ccc[nH]c1=O)C1CCCCC1	> 43.9
CC(=O)Nc1ccc(CC(=O)O)cc1	> 29
Cc1cc2nc(C)c3c(n2n1)CCC3	> 28.1
Cc1ccc(NC(=O)NCCCN2CCCC2=O)cc1Cl	> 46.5
COc1ccc(CCN2C(=O)CC(C(N)=O)SC2=Nc2ccccc2)cc1 (stereo unspecified)	44.5 (≈ 116 µM)
COCC(C)n1c(C)cc(C(=O)COC(=O)c2cc(=O)[nH]c3ccccc23)c1C (stereo unspecified)	11 (≈ 27.7 µM)
O=C(NC1CCCCC1)c1ccc(-n2cncn2)c([N+](=O)[O-])c1	> 47.3
CCCNC(=O)CSc1nc2ccccc2c(=O)n1CCC	27.1 (≈ 84.8 µM)
CO/N=C(\CCC(=O)O)c1cccs1	> 32
NC1=C(c2ccccc2)C(=O)NC1=O	> 28.2
CC(C)Oc1ccccc1/C=N/NC(=O)C1CC1	> 36.9
COc1ccc(NC(=O)c2cc3ccccc3o2)cc1OC	7.9 (≈ 26.6 µM)
O=C1Cc2cc(S(=O)(=O)N3CCNCC3)ccc2N1	39.1 (≈ 139 µM)
Cc1ccc(CN(C)c2nc(-c3cccnc3)nc3ccccc23)o1	15.5 (≈ 46.9 µM)
Cc1cnc(C(=O)OCC(=O)N(Cc2ccccc2)C(C)(C)C)cn1	> 51.2
O=C(COC(=O)C12CC3CC(CC(Br)(C3)C1)C2)Nc1c(F)cccc1F	16.1 (≈ 37.6 µM)
CN1c2ccccc2C(=O)NC1c1ccc(Cl)cc1 (stereo unspecified)	> 40.9
Cc1ccc(NC(=O)Cn2cc(C=O)c3ccccc32)cc1C	< 0.3
Cc1cc(C)nc(/N=C(\N)Nc2cccc(OCc3ccccc3)c2)n1	> 52.1
CCc1c(C#N)sc(C(N)=O)c1CC	> 31.2
Nc1[nH]c2cc([N+](=O)[O-])ccc2c1-c1ccccn1	1.4 (≈ 5.51 µM)
Cc1nc(SCc2ccc(C(=O)O)cc2)c2c(C)c(C)sc2n1	49.5 (≈ 144 µM)
CN1c2ccc(Cl)cc2C(=O)NC1c1ccc([N+](=O)[O-])s1 (stereo unspecified)	30.1 (≈ 93 µM)
COc1nc2ccccc2nc1CCC(=O)O	> 34.8
Cc1nc([N+](=O)[O-])cn1CC(=O)Nc1ccc(Cl)cc1	6.1 (≈ 20.7 µM)

SMILES	solubility kinetic [µg/mL]
COc1ccc(CCC(=O)NCC(=O)OCc2ccccc2)cc1	> 49.1
CC(C)(C)OC(=O)N1CCC(CNC(=O)Nc2ccccc2)CC1	> 50
C/C(=N\O)c1cc(Cl)ccc1O	> 27.8
CCCN1CCC(NC(=O)Cc2ccccc2C)CC1	33.4 (≈ 122 µM)
O=C(Nc1ccncc1)Nc1cccc(F)c1	> 34.7
O=C1NC(=O)/C(=C/c2ccc(-c3cccc([N+](=O)[O-])c3)o2)S1	3.8 (≈ 12 µM)
c1ccc(-c2ccc(C(c3ccccc3)n3ccnc3)cc2)cc1 (stereo unspecified)	0.7 (≈ 2.26 µM)
CCCCCCOc1ccc(C(CC(=O)NC)C(=O)O)cc1 (stereo unspecified)	> 46.1
COc1cccc(C(=O)OCC(=O)NCc2ccc3c(c2)OCO3)c1OC	> 56
C=CCSc1nc(C)c(CC(=C)C)c(=O)[nH]1	32.2 (≈ 136 µM)
Nc1ccc(S(=O)(=O)NC2=NCCCCC2)cc1	> 40.1
CC1(C)C2CCC(C2)C1(C)NC(=O)CN1CCCC1.Cl (stereo unspecified)	> 45.1
O=C(COC(=O)CCC(=O)c1ccc(Cl)cc1)NCCc1ccccc1	5.7 (≈ 15.2 µM)
CCC(=O)N(Cc1cc(=O)[nH]c2ccccc12)c1ccccc1OC	> 50.5
CC(C)c1ccc(/C=C/C(=O)NCc2ccc(S(N)(=O)=O)cc2)cc1	5.1 (≈ 14.2 µM)
Cc1ccc(-c2csc(NC(=O)CN3CC(C)OC(C)C3)n2)cc1 (stereo unspecified)	29.5 (≈ 85.4 µM)
Cc1ccc(Cn2ccccc2=N)cc1.Cl	> 35.2
Cc1ccc(O)c(NC(=O)c2cc(-c3ccccc3Cl)on2)c1	0.4 (≈ 1.22 µM)
Cc1ccc(Cl)cc1NC(=O)C1CC(=O)N(C(C)C)C1 (stereo unspecified)	34.7 (≈ 118 µM)
Cc1ccccc1OS(=O)(=O)c1cn(C)c(=O)n(C)c1=O	> 46.5
O=C(c1ccco1)N1CCC(N2CCN(c3ccccc3)CC2)CC1	43.8 (≈ 129 µM)
Cc1ccc2c(c1)N(CC(=O)N1CCCCC1)C(=O)CO2	> 43.3
Cl.NCCSC1CC(=O)N(Cc2ccc(F)cc2)C1=O (stereo unspecified)	37.9
COc1ccc(C)cc1NC(=O)NCc1ccco1	11 (≈ 42.3 µM)
Cc1ccc(SCC(=O)c2c(C)nc3cc(C)ccn23)cc1	0.7 (≈ 2.25 µM)

SMILES	solubility kinetic [µg/mL]
C=CCOc1nc(-c2ccccc2Cl)nc2ccccc12	0.7 (≈ 2.36 µM)
COc1ccc(CCNC(=O)COC(=O)c2cc(Cl)nc(Cl)c2)cc1	23.6 (≈ 61.6 µM)
CC(C)NC(=O)c1ccccc1NC(=O)Cc1ccc([N+](=O)[O-])cc1	19.1 (≈ 56 µM)
O=C(NCCN1CCOCC1)c1cc(Cl)ccc1Cl	41 (≈ 135 µM)
O=C(CCC(=O)N1CCN(S(=O)(=O)c2ccc([N+](=O)[O-])cc2)CC1)N1CCOCC1	> 66.1
Cl.O=C(CSC1=NCCN1)Nc1cccc([N+](=O)[O-])c1	> 47.5
CC(=O)c1cccc(NC(=O)c2cc(-c3ccco3)on2)c1	2.1 (≈ 7.09 µM)
O=C(C1CC(=O)N(c2ccccc2)C1)N1CCCCCC1 (stereo unspecified)	> 43
COc1ccc(/C=N/N2CCOCC2)cc1Cn1cc([N+](=O)[O-])cn1	> 51.8
O=C(COC(=O)c1ccco1)Nc1cc(S(=O)(=O)N2CCCCC2)ccc1Cl	6.7 (≈ 15.7 µM)
O=C(O)c1cc(S(=O)(=O)NCCOc2ccccc2)ccc1Cl	> 53.4
COC(=O)c1ccc(C(=S)NCC2(N(C)C)CCCCC2)cc1	45.6 (≈ 136 µM)
Cc1ccc(NC(/C=C/N(C)C)=C/C(=O)C(F)(F)F)c(C)c1	37.8 (≈ 121 µM)
CC(C(=O)Nc1ccccc1)N(C)Cc1cccs1 (stereo unspecified)	33.6 (≈ 122 µM)
Nc1cc(=O)[nH]c(SCC(=O)Nc2ccc(N3CCOCC3)cc2)n1	> 54.2
COc1ccccc1N1C(=O)C(=O)N(C)C1=O	> 35.1
CC(C)(C)c1ccc(C(=O)NCc2ccccc2)cc1	< 0.6
CC(C)N(C(=O)COC(=O)c1ccc(Cl)nc1)C(C)C	30.7 (≈ 103 µM)
O=C(CSc1nc2ncccc2[nH]1)NCc1ccco1	> 43.2
CCCNC(=O)N1CCC(c2nc3ccccc3s2)CC1	> 45.5
CC(NC(=O)COC(=O)C1CC1C)c1cccc(Cl)c1 (stereo unspecified)	> 44.4
